Assay results from patent US5817624A, “Permeation enhancer compositions for increased absorption of therapeutic proteins through the colonic membrane” (Alza Corporation, priority 1995, dated 1998).
Values joined by “and” are separate entries in the source; they are usually repeats but may differ in a detail not shown here. Identical values can stand only once. Like-named read-outs stand apart in the source and are kept apart here.

Test system: fasted anesthetized Sprague-Dawley male rats
Conditions: for % Maximum Decrease 0-60 mins (blood glucose): sodium bovine insulin 0.5 mg/kg, 1 mL peanut oil, intracolonic bolus, n = 3-4
From the text: An animal model commonly known as the "intracolonic ligated model" was employed for testing formulations. Surgical preparation of a fasted anesthetized 0.3-0.5 kg Sprague-Dawley male rats proceeded as follows. A segment of proximal colon was isolated and the colon was flushed of fecal materials. The segment was ligated at both ends while a catheter was placed in the lumen and exteriorized above the skin for delivery of test formulation. The colonic contents were flushed out and the colon was returned to the abdomen of the animal. Depending on the experimental set up, the test formulation was added after the segment was filled with 1 mL/kg of 20 mM sodium phosphate buffer, pH 7.4, to more accurately simulate the actual colon environment in a clinical situation.
Rats were allowed to equilibrate for approximately 1 hour after surgical preparation and prior to exposure to each test formulation. Immediately prior to test solution administration, a 0.3-0.5 mL blood sample was taken from the jugular catheter of the rats and analyzed for glucose content using an Ames GlucometerM® blood glucose meter utilizing Glucostix® reagent strips. Withdrawn blood was replaced with an equal volume of heparinized Ringer's. Sodium bovine insulin was formulated to be delivered at a dose of 0.5 mg/kg body weight. Initially, all candidate enhancers were tested at a concentration of 300 mM. […] The solutes (enhancer and insulin) were suspended in 1 mL peanut oil (except where noted) and mixed using a vortex mixer. Test solutions were vortexed immediately prior to aspiration into individual delivery syringes.
After determination of baseline blood glucose levels, the test solution was administered as an intracolonic bolus and delivered at 1 ml/kg adjusting for either the 100 μl or 250 μl dead volume of the colonic catheter. Blood samples obtained from the jugular catheter were taken at 0, 5, 15, 30, 60, 120, 180 and 240 minutes and analyzed for blood glucose concentration. At the end of the 4 hour test period, the rats were euthanized with an overdose of pentobarbital. Colonic segments from each rat were excised and opened longitudinally along the anti-mesenteric border. Each segment was observed macroscopically for irritation and any abnormality noted. The excised colons were placed on graph paper and measured to approximate colonic surface area. Blood glucose dynamics are reported as the percent change from initial blood glucose levels.
Rats were prepared as described in EXAMPLE 1. […] The open symbols denote the formulations delivered in oil whereas the closed symbol denotes the formulation without oil.

Compound	% Maximum Decrease 0-60 mins (blood glucose) (enhancer 300 mM)	other results
O=C([O-])c1cc(O)ccc1O.[Na+] [2,5-Dihydroxybenzoic acid, Na salt]	1% and 9%	–
Nc1ccc(C(=O)[O-])c(O)c1.[Na+] [4-Amino salicylic acid, Na salt]	10%	–
Nc1ccc(O)c(C(=O)[O-])c1.[Na+] [5-Amino salicylic acid, Na salt]	13%	% Maximum Decrease 0-60 mins (blood glucose) (enhancer 100 mM): 13%
COc1ccc(O)c(C(=O)[O-])c1.[Na+] [5-Methoxysalicylic acid, Na salt]	9%	–
O=C([O-])c1ccccc1.[Na+] [Benzoic acid, Na salt]	0%	–
O=C([O-])c1ccccc1O.[Na+] [Na Salicylate, sodium salicylate]	–	rats that died (enhancer 250 mM with insulin 0.5 mg/kg in 1/8 mL peanut oil): 2/4; effect on blood glucose levels over a 4 hour period (enhancer 300 mM formulated without insulin): no effect; decrease in fasting blood glucose levels from pre-exposure levels (significance) (enhancer 300 mM with sodium bovine insulin (0.5 mg/kg) and peanut oil): significant decrease; rats that died (enhancer 600 mM with insulin 0.5 mg/kg and peanut oil, death due to low blood glucose levels): 4/4
[Cl-].[Na+] [NaCl]	2%	–
